Data published in patent publication US6525001B1, “Substituted pyrimidine and pyridine herbicides” (Mid-American Commercialization Corporation, priority 1997, dated 2003).

Key:
Type in all cases: in vivo
[1] = tested on: field bindweed (Convolvulus arvensis); assay: Test C; set-up: key: 0 was no effect; 100 was complete control; details: PREEMERGENCE
[2] = tested on: surinam grass (Brachiaria decumbens); assay: Test C; set-up: key: 0 was no effect; 100 was complete control; details: PREEMERGENCE
[3] = tested on: giant foxtail (Setaria faberii); assay: Test C; set-up: key: 0 was no effect; 100 was complete control; details: PREEMERGENCE
[4] = tested on: large crabgrass (Digitaria sanguinalis); assay: Test C; set-up: key: 0 was no effect; 100 was complete control; details: PREEMERGENCE
[5] = tested on: cotton (Gossypium hirsutum); assay: Test C; set-up: key: 0 was no effect; 100 was complete control; details: PREEMERGENCE
[6] = tested on: barnyardgrass (Echinochloa crus-galli); assay: Test C; set-up: key: 0 was no effect; 100 was complete control; details: PREEMERGENCE
[7] = tested on: velvetleaf (Abutilon theophrasti); assay: Test C; set-up: key: 0 was no effect; 100 was complete control; details: PREEMERGENCE
[8] = tested on: common ragweed (Ambrosia elatior); assay: Test C; set-up: key: 0 was no effect; 100 was complete control; details: PREEMERGENCE
corn (Zea mays) = assay: Test C; set-up: key: 0 was no effect; 100 was complete control; details: PREEMERGENCE
[9] = tested on: lambsquarters (Chenopodium album); assay: Test C; set-up: key: 0 was no effect; 100 was complete control; details: PREEMERGENCE
[10] = tested on: fall panicum (Panicum dichotomiflorum); assay: Test C; set-up: key: 0 was no effect; 100 was complete control; details: PREEMERGENCE
[11] = tested on: surinam grass (Brachiaria decumbens); assay: Test E pre-/postemergence/post directed; details: PREEMERGENCE
In short: (§1)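 Greenhouse pot-grown plants; compound in non-phytotoxic solvent with surfactant applied preemergence to soil within one day of planting, postemergence at two to four leaf stage (three to twenty cm), or post-directed to plant base and soil. Visual injury rated 13 to 21 days after application, 0 (none) to 100 (complete control).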

[12] = tested on: pitted morningglory (Ipomoea lacunosa); assay: Test E pre-/postemergence/post directed; details: PREEMERGENCE
In short: as §1

[13] = tested on: itchgrass (Rottboellia exaltata); assay: Test E pre-/postemergence/post directed; details: PREEMERGENCE
In short: as §1

[14] = tested on: barnyardgrass (Echinochloa crus-galli); assay: Test A pre-/postemergence; details: 0 to 10 scale
Description: (§2) Seeds of barnyardgrass (Echinochloa crus-galli), crabgrass (Digitaria spp.), morningglory (Ipomoea spp.), and velvetleaf (Abutilon theophrasti) were planted into a sandy loam soil and treated preemergence by soil drench with test chemicals formulated in a non-phytotoxic solvent mixture which includes a surfactant. At the same time, these crop and weed species were also treated postemergence sprayed to runoff, with test chemicals formulated in the same manner. Plants ranged in height from two to eighteen cm and were in the one to two leaf stage for the postemergence treatment. Treated plants and untreated controls were maintained in a greenhouse for approximately eleven days, after which all treated plants were compared to untreated controls and visually evaluated for injury. Plant response ratings, summarized in Table A, are based on a 0 to 10 scale where 0 is no effect and 10 is complete control. A dash (−) response means no test results.

[15] = tested on: crabgrass (Digitaria spp.); assay: Test A pre-/postemergence; details: 0 to 10 scale
Description: as §2

[16] = tested on: velvetleaf (Abutilon theophrasti); assay: Test A pre-/postemergence; details: 0 to 10 scale
Description: as §2

[17] = tested on: morningglory (Ipomoea spp.); assay: Test A pre-/postemergence; details: 0 to 10 scale
Description: as §2

[18] = PRE SOIL DRENCH, Rate 2000 g/ha
[19] = postemergence SPRAYED TO RUNOFF, Rate 1000 g/ha

## Cc1cnc(-c2ccc(C(F)(F)F)cc2)nc1C(Cl)c1cccc(C(F)(F)F)c1 (racemic) [Compound 21]
[1]; Rate 70 g/ha
  Plant response rating, Field bindweed: 40
[1]; Rate 140 g/ha
  Plant response rating, Field bindweed: 40
[2]; Rate 35 g/ha
  Plant response rating, Surinam grass: 0
[2]; Rate 70 g/ha
  Plant response rating, Surinam grass: 5
[2]; Rate 140 g/ha
  Plant response rating, Surinam grass: 10
[3]; Rate 35 g/ha
  Plant response rating, Giant foxtail: 85
[3]; Rate 70 g/ha
  Plant response rating, Giant foxtail: 100
[3]; Rate 140 g/ha
  Plant response rating, Giant foxtail: 100
[4]; Rate 35 g/ha
  Plant response rating, Large crabgrass: 80
[4]; Rate 70 g/ha
  Plant response rating, Large crabgrass: 100
[4]; Rate 140 g/ha
  Plant response rating, Large crabgrass: 100
[5]; Rate 35 g/ha
  Plant response rating, Cotton: 0
[5]; Rate 70 g/ha
  Plant response rating, Cotton: 5
[5]; Rate 140 g/ha
  Plant response rating, Cotton: 20
[6]; Rate 35 g/ha
  Plant response rating, Barnyardgrass: 0
[6]; Rate 70 g/ha
  Plant response rating, Barnyardgrass: 0
[6]; Rate 140 g/ha
  Plant response rating, Barnyardgrass: 5
[7]; Rate 35 g/ha
  Plant response rating, Velvetleaf: 0
[7]; Rate 70 g/ha
  Plant response rating, Velvetleaf: 50
[7]; Rate 140 g/ha
  Plant response rating, Velvetleaf: 50
[8]; Rate 35 g/ha
  Plant response rating, Common ragweed: 0
[8]; Rate 70 g/ha
  Plant response rating, Common ragweed: 0
[8]; Rate 140 g/ha
  Plant response rating, Common ragweed: 20
Corn (Zea mays); Rate 35 g/ha
  Plant response rating, Corn: 0
Corn (Zea mays); Rate 70 g/ha
  Plant response rating, Corn: 0
Corn (Zea mays); Rate 140 g/ha
  Plant response rating, Corn: 0
[9]; Rate 35 g/ha
  Plant response rating, Lambsquarters: 0
[9]; Rate 70 g/ha
  Plant response rating, Lambsquarters: 5
[9]; Rate 140 g/ha
  Plant response rating, Lambsquarters: 90
[10]; Rate 35 g/ha
  Plant response rating, Fall panicum: 10
[10]; Rate 70 g/ha
  Plant response rating, Fall panicum: 0
[10]; Rate 140 g/ha
  Plant response rating, Fall panicum: 90

## Cc1cnc(-n2cnc(C(F)(F)F)n2)nc1Cc1cccc(C(F)(F)F)c1 [Compound 43]
[1]; Rate 35 g/ha
  Plant response rating, Field bindweed: 100
[1]; Rate 70 g/ha
  Plant response rating, Field bindweed: 100
[1]; Rate 140 g/ha
  Plant response rating, Field bindweed: 100
[2]; Rate 35 g/ha
  Plant response rating, Surinam grass: 0
[2]; Rate 70 g/ha
  Plant response rating, Surinam grass: 5
[2]; Rate 140 g/ha
  Plant response rating, Surinam grass: 10
[3]; Rate 35 g/ha
  Plant response rating, Giant foxtail: 100
[3]; Rate 70 g/ha
  Plant response rating, Giant foxtail: 100
[3]; Rate 140 g/ha
  Plant response rating, Giant foxtail: 100
[4]; Rate 35 g/ha
  Plant response rating, Large crabgrass: 100
[4]; Rate 70 g/ha
  Plant response rating, Large crabgrass: 100
[4]; Rate 140 g/ha
  Plant response rating, Large crabgrass: 100
[5]; Rate 35 g/ha
  Plant response rating, Cotton: 0
[5]; Rate 70 g/ha
  Plant response rating, Cotton: 0
[5]; Rate 140 g/ha
  Plant response rating, Cotton: 10
[6]; Rate 35 g/ha
  Plant response rating, Barnyardgrass: 10
[6]; Rate 70 g/ha
  Plant response rating, Barnyardgrass: 30
[6]; Rate 140 g/ha
  Plant response rating, Barnyardgrass: 50
[7]; Rate 35 g/ha
  Plant response rating, Velvetleaf: 100
[7]; Rate 70 g/ha
  Plant response rating, Velvetleaf: 100
[7]; Rate 140 g/ha
  Plant response rating, Velvetleaf: 100
[8]; Rate 35 g/ha
  Plant response rating, Common ragweed: 0
[8]; Rate 70 g/ha
  Plant response rating, Common ragweed: 40
[8]; Rate 140 g/ha
  Plant response rating, Common ragweed: 50
Corn (Zea mays); Rate 35 g/ha
  Plant response rating, Corn: 0
Corn (Zea mays); Rate 70 g/ha
  Plant response rating, Corn: 30
Corn (Zea mays); Rate 140 g/ha
  Plant response rating, Corn: 55
[9]; Rate 35 g/ha
  Plant response rating, Lambsquarters: 100
[9]; Rate 70 g/ha
  Plant response rating, Lambsquarters: 100
[9]; Rate 140 g/ha
  Plant response rating, Lambsquarters: 100
[10]; Rate 35 g/ha
  Plant response rating, Fall panicum: 100
[10]; Rate 70 g/ha
  Plant response rating, Fall panicum: 100
[10]; Rate 140 g/ha
  Plant response rating, Fall panicum: 100

## CCc1cnc(-n2ccc(C(F)(F)F)n2)nc1Cc1cccc(C(F)(F)F)c1 [Compound 46]
[1]; Rate 35 g/ha
  Plant response rating, Field bindweed: 10
[1]; Rate 70 g/ha
  Plant response rating, Field bindweed: 70
[1]; Rate 140 g/ha
  Plant response rating, Field bindweed: 100
[2]; Rate 35 g/ha
  Plant response rating, Surinam grass: 0
[2]; Rate 70 g/ha
  Plant response rating, Surinam grass: 5
[2]; Rate 140 g/ha
  Plant response rating, Surinam grass: 25
[3]; Rate 35 g/ha
  Plant response rating, Giant foxtail: 100
[3]; Rate 70 g/ha
  Plant response rating, Giant foxtail: 100
[3]; Rate 140 g/ha
  Plant response rating, Giant foxtail: 100
[11]; Rate 125 g/ha
  Plant response rating, Surinam grass: 40
[11]; Rate 250 g/ha
  Plant response rating, Surinam grass: 55
[12]; Rate 32 g/ha
  Plant response rating, P. morninglory: 65
[12]; Rate 64 g/ha
  Plant response rating, P. morninglory: 65
[12]; Rate 125 g/ha
  Plant response rating, P. morninglory: 65
[12]; Rate 250 g/ha
  Plant response rating, P. morninglory: 65
[13]; Rate 125 g/ha
  Plant response rating, Itchgrass: 40
[13]; Rate 250 g/ha
  Plant response rating, Itchgrass: 40
[4]; Rate 35 g/ha
  Plant response rating, Large crabgrass: 80
[4]; Rate 70 g/ha
  Plant response rating, Large crabgrass: 100
[4]; Rate 140 g/ha
  Plant response rating, Large crabgrass: 100
[5]; Rate 35 g/ha
  Plant response rating, Cotton: 0
[5]; Rate 70 g/ha
  Plant response rating, Cotton: 5
[5]; Rate 140 g/ha
  Plant response rating, Cotton: 40
[6]; Rate 35 g/ha
  Plant response rating, Barnyardgrass: 5
[6]; Rate 70 g/ha
  Plant response rating, Barnyardgrass: 10
[6]; Rate 140 g/ha
  Plant response rating, Barnyardgrass: 50
[7]; Rate 35 g/ha
  Plant response rating, Velvetleaf: 50
[7]; Rate 70 g/ha
  Plant response rating, Velvetleaf: 80
[7]; Rate 140 g/ha
  Plant response rating, Velvetleaf: 80
[8]; Rate 35 g/ha
  Plant response rating, Common ragweed: 10
[8]; Rate 70 g/ha
  Plant response rating, Common ragweed: 20
[8]; Rate 140 g/ha
  Plant response rating, Common ragweed: 80
Corn (Zea mays); Rate 35 g/ha
  Plant response rating, Corn: 0
Corn (Zea mays); Rate 70 g/ha
  Plant response rating, Corn: 0
Corn (Zea mays); Rate 140 g/ha
  Plant response rating, Corn: 5
[9]; Rate 35 g/ha
  Plant response rating, Lambsquarters: 60
[9]; Rate 70 g/ha
  Plant response rating, Lambsquarters: 100
[9]; Rate 140 g/ha
  Plant response rating, Lambsquarters: 100
[10]; Rate 35 g/ha
  Plant response rating, Fall panicum: 60
[10]; Rate 70 g/ha
  Plant response rating, Fall panicum: 100
[10]; Rate 140 g/ha
  Plant response rating, Fall panicum: 100

## Cc1cnc(-c2ccc(C(F)(F)F)cc2)nc1Cn1cc(I)cn1 [Compound 12]
[14]; [18]
  Plant response rating, Barnyardgrass: 7
[14]; [19]
  Plant response rating, Barnyardgrass: 5
[15]; [18]
  Plant response rating, Crabgrass: 9
[15]; [19]
  Plant response rating, Crabgrass: 8
[16]; [18]
  Plant response rating, Velvetleaf: 5
[16]; [19]
  Plant response rating, Velvetleaf: 6
[17]; [18]
  Plant response rating, Morningglory: 3
[17]; [19]
  Plant response rating, Morningglory: 2
